One may read the IC50 as the concentration that inhibits the measured activity by half.

This experiment addresses T1, mouse VISTA (mVISTA) (Mus musculus, UniProt Q9D659).
T1 construct: expressed in transfected cells; host or cells: Human embryonic kidney 293T cells
T1 sequence (Q9D659 33-308): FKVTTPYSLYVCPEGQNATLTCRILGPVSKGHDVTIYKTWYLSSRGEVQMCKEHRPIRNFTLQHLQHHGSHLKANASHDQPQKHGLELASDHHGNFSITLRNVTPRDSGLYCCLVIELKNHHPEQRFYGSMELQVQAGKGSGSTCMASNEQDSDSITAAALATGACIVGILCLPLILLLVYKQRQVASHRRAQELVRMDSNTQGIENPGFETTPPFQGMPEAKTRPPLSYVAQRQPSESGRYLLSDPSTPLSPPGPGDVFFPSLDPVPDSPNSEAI
In words: Cell-Based Binding High-Content Assay For mVISTA (HC CBA mVISTA). In outline: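 Competition of compound with a biotinylated peptide (final 2 nM, 30 min at RT) for binding to mVISTA on 293T cells, run under no-wash or wash (1 h compound preincubation then removal) formats. Readout by Alexa 647–streptavidin imaging on a high-content platform; four-parameter logistic fit gave IC50.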

[1] abbreviates: 293T cells expressing mouse VISTA, competition with biotinylated peptide (2 nM), read-out: HC CBA mVISTA IC50.

Where two headings read alike, the source gives them in different places. Starred links: 1 amine or outer side, 2 acyl side, 3 side chain; linkers in the order of their positions; H or OH if unused. Positions of bridges follow the written chain, without caps; N, C: chain ends. Non-standard residues stand in square brackets, D forms with d. Residues, ends and D or L forms follow the SMILES beside them. ξ: configuration not given here. Phe(3-Me) = Cc1cccc(C[C@H](N)C(=O)O)c1; Phe(4-Me) = Cc1ccc(C[C@H](N)C(=O)O)cc1; γGlu = O=C(O)[C@H](CCC(=O)[*:2])N[*:1]; 2Nal = N[C@@H](Cc1ccc2ccccc2c1)C(=O)O; βAsp = O=C(O)[C@H](CC(=O)[*:2])N[*:1]; Ahp(2) = CCCCC[C@H](N)C(=O)O; NMeNle = CCCC[C@H](NC)C(=O)O; Tle = CC(C)(C)[C@H](N)C(=O)O; Pip = O=C(O)[C@@H]1CCCCN1; NHexGly = CCCCCCNCC(=O)O; NMeA = CN[C@@H](C)C(=O)O; Nle = CCCC[C@H](N)C(=O)O; Orn = NCCC[C@H](N)C(=O)O; Aun = NCCCCCCCCCCC(=O)O; AEEA = NCCOCCOCC(=O)O; ξS = NC(CO)C(=O)O

`CCCCCCN1CC(=O)N[C@@H](Cc2ccc(O)cc2)C(=O)N[C@@H](CCCC)C(=O)N[C@@H](CC(=O)O)C(=O)N[C@@H](CCCN)C(=O)N(C)[C@@H](CCCC)C(=O)N[C@@H](CCCCC)C(=O)N2CCC[C@H]2C(=O)N[C@@H](C(C)C)C(=O)N[C@@H](CC(=O)O)C(=O)N[C@H](C(=O)NC(CO)C(N)=O)CSCC(=O)N[C@@H](Cc2ccccc2)C(=O)N[C@@H](Cc2cccc(C)c2)C(=O)N[C@@H](CC(=O)O)C1=O` (stereo partly shown) [compound 1348] ({CH2CO}-F[Phe(3-Me)]D[NHexGly]Y[Nle]D[Orn][NMeNle][Ahp(2)]PVDC[ξS]-NH2; thioether N-14): the IC50 (read-out: HC CBA mVISTA IC50) is 23.2 nM.

With `CCCCCCN1CC(=O)N[C@@H](Cc2ccc(O)cc2)C(=O)N[C@@H](CC(C)C)C(=O)N[C@@H](CC(N)=O)C(=O)N[C@@H](CCCNC(=N)N)C(=O)N(C)[C@@H](CCCC)C(=O)N[C@@H](CCCCC)C(=O)N2CCC[C@H]2C(=O)N[C@@H](C(C)(C)C)C(=O)N[C@@H](CO)C(=O)N[C@H](C(=O)N[C@@H](CCCCN)C(=O)NCCOCCOCC(=O)N[C@@H](CC(=O)O)C(=O)NCCOCCOCC(=O)NCCCCCCCCCCC(=O)O)CSCC(=O)N[C@@H](Cc2ccccc2)C(=O)N[C@@H](Cc2ccc(O)cc2)C(=O)N[C@@H](CC(=O)O)C1=O` [compound 2080] ({CH2CO}-FYD[NHexGly]YLNR[NMeNle][Ahp(2)]P[Tle]SCK[AEEA]D[AEEA][Aun]-OH; thioether N-14), under “cell-based binding high-content assay, mVISTA, read-out: HC CBA miPrISTA IC50”, the IC50 is 28.5 nM. Take `CCCCCCN1CC(=O)N[C@@H](Cc2ccc(O)cc2)C(=O)N[C@@H](CC(C)C)C(=O)N[C@@H](CC(N)=O)C(=O)N[C@@H](CCCNC(=N)N)C(=O)N(C)[C@@H](CCCC)C(=O)N[C@@H](CCCCC)C(=O)N2CCC[C@H]2C(=O)N[C@@H](C(C)C)C(=O)N[C@@H](CO)C(=O)N[C@H](C(=O)NCC(N)=O)CSCC(=O)N[C@@H](Cc2ccc(C)cc2)C(=O)N[C@@H](Cc2ccc(O)cc2)C(=O)N[C@@H](CC(=O)O)C1=O` [compound 1214] ({CH2CO}-[Phe(4-Me)]YD[NHexGly]YLNR[NMeNle][Ahp(2)]PVSCG-NH2; thioether N-14): the IC50 (read-out: HC CBA mVISTA IC50) stood at 23.3 nM. As for `CCCCCCN1CC(=O)N[C@@H](Cc2ccc(O)cc2)C(=O)N[C@@H](CCCCC)C(=O)NCC(=O)N[C@@H](CCCNC(=N)N)C(=O)N[C@@H](CC(C)C)C(=O)N[C@@H](CCCCC)C(=O)N2CCCC[C@H]2C(=O)N[C@@H](C(C)C)C(=O)N[C@@H](CO)C(=O)N[C@H](C(=O)NCC(N)=O)CSCC(=O)N[C@@H](Cc2ccccc2)C(=O)N[C@@H](Cc2ccc(O)cc2)C(=O)N[C@@H](CC(=O)O)C1=O` [compound 1155] ({CH2CO}-FYD[NHexGly]Y[Ahp(2)]GRL[Ahp(2)][Pip]VSCG-NH2; thioether N-14), where the note is “read-out: HC CBA mVISTA IC50”, the half-maximal inhibitory concentration (IC50) was 24 nM. As for `CCCCCCN1CC(=O)N[C@@H](Cc2ccc(O)cc2)C(=O)N[C@@H](CCCCC)C(=O)N[C@@H](CC(N)=O)C(=O)N[C@@H](CCCNC(=N)N)C(=O)N[C@@H](CC(C)C)C(=O)N[C@@H](CCCCC)C(=O)N2CCC[C@H]2C(=O)N[C@@H](C(C)C)C(=O)N[C@@H](CO)C(=O)N[C@H](C(=O)NCC(=O)N[C@@H](CCC(=O)O)C(=O)NCCCCCCCCCCC(=O)O)CSCC(=O)N[C@@H](Cc2ccccc2)C(=O)N[C@@H](Cc2ccc(O)cc2)C(=O)N[C@@H](CC(=O)O)C1=O` [Example 2341] ({CH2CO}-FYD[NHexGly]Y[Ahp(2)]NRL[Ahp(2)]PVSCGE[Aun]-OH; thioether N-14), the half-inhibitory concentration (IC50) under setting [1] was 58 nM. For `CCCCCCN1CC(=O)N[C@@H](Cc2ccc(O)cc2)C(=O)N[C@@H](C)C(=O)N[C@@H](CC(N)=O)C(=O)N[C@@H](CCCNC(=N)N)C(=O)N(C)[C@@H](CCCC)C(=O)N[C@@H](CCCCC)C(=O)N2CCC[C@H]2C(=O)N[C@@H](C(C)(C)C)C(=O)N[C@@H](CO)C(=O)N[C@H](C(=O)N[C@@H](CC(=O)NCCOCCOCC(=O)N[C@@H](CC(=O)O)C(=O)NCCOCCOCC(=O)NCCCCCCCCCCC(=O)O)C(=O)O)CSCC(=O)N[C@@H](Cc2ccccc2)C(=O)N[C@@H](Cc2ccc(O)cc2)C(=O)N[C@@H](CC(=O)O)C1=O` [compound 2058] ({CH2CO}-FYD[NHexGly]YANR[NMeNle][Ahp(2)]P[Tle]SC[βAsp][AEEA]D[AEEA][Aun]-OH; thioether N-14), the IC50 (cell-based binding high-content assay, mVISTA, read-out: HC CBA miPr ISTA IC50) came to 27.6 nM. `CCCCCCN1CC(=O)N[C@@H](Cc2ccc(O)cc2)C(=O)N[C@@H](CCCC)C(=O)N[C@@H](CC(N)=O)C(=O)N[C@@H](CCCNC(=N)N)C(=O)N(C)[C@@H](CCCC)C(=O)N[C@@H](CCCCC)C(=O)N(C)[C@@H](C)C(=O)N[C@@H](C(C)C)C(=O)N[C@@H](CO)C(=O)N[C@H](C(=O)N[C@@H](CC(=O)NCCOCCOCC(=O)NCCCCCCCCCCC(=O)O)C(=O)O)CSCC(=O)N[C@@H](Cc2ccccc2)C(=O)N[C@@H](Cc2c[nH]c3ccccc23)C(=O)N[C@@H](CC(=O)O)C1=O` [Example 2172] ({CH2CO}-FWD[NHexGly]Y[Nle]NR[NMeNle][Ahp(2)][NMeA]VSC[βAsp][AEEA][Aun]-OH; thioether N-14): the IC50 (read-out: HC CBA mVISTA IC50) came to 30.6 nM. For the compound `CCCCCCN1CC(=O)N[C@@H](Cc2ccc(O)cc2)C(=O)N[C@@H](C(C)C)C(=O)NCC(=O)N[C@@H](CCCNC(=N)N)C(=O)N[C@@H](CC(C)C)C(=O)N[C@@H](CCCCC)C(=O)N2CCC[C@H]2C(=O)N[C@@H](C(C)C)C(=O)N[C@@H](CC(=O)O)C(=O)N[C@H](C(=O)NCC(=O)O)CSCC(=O)N[C@@H](Cc2ccc(OC)cc2)C(=O)N[C@@H](Cc2ccc(O)cc2)C(=O)N[C@@H](CC(=O)O)C1=O` [compound 1478] ({CH2CO}-Y(Me)YD[NHexGly]YVGRL[Ahp(2)]PVDCG-OH; thioether N-14), under “the 20th table, scaffold drawing 23, read-out: HC CBA mVISTA IC50”, the 50% inhibitory concentration (IC50) stood at 12 nM.

For `CCCCCCN1CC(=O)N[C@@H](Cc2ccc(O)cc2)C(=O)N[C@@H](CCCCC)C(=O)N[C@@H](CC(=O)O)C(=O)N[C@@H](CCCNC(=N)N)C(=O)N[C@@H](CC(C)C)C(=O)N[C@@H](CCCCC)C(=O)N2CCC[C@H]2C(=O)N[C@@H](C(C)C)C(=O)N[C@@H](CO)C(=O)N[C@H](C(=O)NCC(N)=O)CSCC(=O)N[C@@H](Cc2ccccc2)C(=O)N[C@@H](Cc2ccc(O)cc2)C(=O)N[C@@H](CC(=O)O)C1=O` [Example 1038] ({CH2CO}-FYD[NHexGly]Y[Ahp(2)]DRL[Ahp(2)]PVSCG-NH2; thioether N-14), under setting [1], the IC50 turned out to be 38.4 nM. Consider `CCCCCCN1CC(=O)N[C@@H](Cc2ccc(O)cc2)C(=O)N[C@@H](CCCC)C(=O)N[C@@H](CC(N)=O)C(=O)N[C@@H](CCCNC(=N)N)C(=O)N(C)[C@@H](CCCC)C(=O)N[C@@H](CCCCC)C(=O)N2CCC[C@H]2C(=O)N[C@@H](C(C)C)C(=O)N[C@@H](CO)C(=O)N[C@H](C(=O)NCC(=O)O)CSCC(=O)N[C@@H](Cc2ccc3ccccc3c2)C(=O)N[C@@H](Cc2c[nH]c3ccccc23)C(=O)N[C@@H](CC(=O)O)C1=O` [compound 1247] ({CH2CO}-[2Nal]WD[NHexGly]Y[Nle]NR[NMeNle][Ahp(2)]PVSCG-OH; thioether N-14), for which the IC50 (cell-based binding high-content assay, mVISTA, the 15th table, read-out: HC CBA mVISTA IC50) is 35.2 nM. As to `CCCCCCN1CC(=O)N[C@@H](Cc2ccc(O)cc2)C(=O)N[C@@H](CC(C)C)C(=O)N[C@@H](CC(N)=O)C(=O)N[C@@H](CCCN)C(=O)N(C)[C@@H](CCCC)C(=O)N[C@@H](CCCCC)C(=O)N2CCC[C@H]2C(=O)N[C@@H](C(C)(C)C)C(=O)N[C@@H](C(C)C)C(=O)N[C@H](C(=O)NCCOCCOCC(=O)N[C@@H](CCC(=O)NCCOCCOCC(=O)NCCCCCCCCCCC(=O)O)C(=O)O)CSCC(=O)N[C@@H](Cc2ccccc2)C(=O)N[C@@H](Cc2ccc(O)cc2)C(=O)N[C@@H](CC(=O)O)C1=O` [compound 2279] ({CH2CO}-FYD[NHexGly]YLN[Orn][NMeNle][Ahp(2)]P[Tle]VC[AEEA][γGlu][AEEA][Aun]-OH; thioether N-14), the IC50 (read-out: HC CBA mVISTA IC50) is 28.6 nM. As to `CCCCCCN1CC(=O)N[C@@H](Cc2ccc(O)cc2)C(=O)N[C@@H](CCCCN)C(=O)N[C@@H](CC(N)=O)C(=O)N[C@@H](CCCN)C(=O)N(C)[C@@H](CCCC)C(=O)N[C@@H](CCCCC)C(=O)N2CCC[C@H]2C(=O)N[C@@H](C(C)(C)C)C(=O)N[C@@H](CC(=O)O)C(=O)N[C@H](C(=O)N[C@@H](CCC(=O)NCCCCCCCCCCC(=O)O)C(=O)O)CSCC(=O)N[C@@H](Cc2ccccc2)C(=O)N[C@@H](Cc2ccc(O)cc2)C(=O)N[C@@H](CC(=O)O)C1=O` [Example 2140] ({CH2CO}-FYD[NHexGly]YKN[Orn][NMeNle][Ahp(2)]P[Tle]DC[γGlu][Aun]-OH; thioether N-14), for the setting “read-out: HC CBA mVISTA IC50”, the IC50 was 41.9 nM. As for `CCCCCCN1CC(=O)N[C@@H](Cc2ccc(O)cc2)C(=O)N[C@@H](CC(C)C)C(=O)NCC(=O)N[C@@H](CCCNC(=N)N)C(=O)N(C)[C@@H](CCCC)C(=O)N[C@@H](CCCCC)C(=O)N2CCC[C@H]2C(=O)N[C@@H](C(C)C)C(=O)N[C@@H](CO)C(=O)N[C@H](C(=O)NCC(N)=O)CSCC(=O)N[C@@H](Cc2ccc3ccccc3c2)C(=O)N[C@@H](Cc2ccc(O)cc2)C(=O)N[C@@H](CC(=O)O)C1=O` [Ex 1294] ({CH2CO}-[2Nal]YD[NHexGly]YLGR[NMeNle][Ahp(2)]PVSCG-NH2; thioether N-14), the IC50 (cell-based binding high-content assay, mVISTA, the 16th table, read-out: HC CBA mVISTA IC50) is 9.3 nM.
